Like-named read-outs stand apart in the source and are kept apart here.
Assays:
[1] = Plasma protein binding by equilibrium dialysis; assay type: in vitro ADME; conditions: pH 7.4
Experimental: (§1) Protein binding of [^3H]SCY-078 in mouse, rat, dog, and human plasma was determined by means of equilibrium dialysis and liquid scintillation counting. Tritium-labeled SCY-078 in ethanol was added to unlabeled SCY-078 in methanol to prepare stock solutions at 10, 100, and 1,000 μM SCY-078 with constant activity.
Protein binding was determined against isotonic phosphate-buffered saline (pH 7.4) at 37°C for 24 h. Aliquots (10 μl) of each stock solution were added to pooled DBA mouse (n = >10 animals), Sprague-Dawley rat, beagle dog, or human plasma (1 ml) to achieve final total concentrations of 0.1, 1, and 10 μM SCY-078. The final concentration of the organic solvent was 0.9% (vol/vol). Dialysis was performed in 1-ml acrylic dialysis cells (Scienceware, South Wayne, NJ), where plasma and buffer were separated by a 12.4-kDa cutoff membrane (Sigma, St. Louis, MO). After incubation, aliquots (100 μl) of plasma and phosphate buffer were counted for radioactivity (Beckman LS6500 liquid scintillation counter), and unbound fractions of SCY-078 were estimated based on the following calculation: unbound fraction = radioactivity (dpm/0.1 ml) in buffer/total radioactivity (dpm/0.1 ml) in plasma.

[2] = In vitro metabolic stability in hepatic microsomes; assay type: in vitro ADME; conditions: for remaining at 0.5 h, 1 µM: read-out: % remaining after 30 min
Experimental: The metabolic stability of SCY-078 was assessed after incubation with mouse, rat, dog, and human liver microsomes (Table 2) ([10]). […] The half-lives in rodent, dog, and human liver microsomes were ≥125, ≥29, and ≥42 min, respectively.
The metabolic stability of SCY-078 was evaluated with male and female mouse, male rat, male and female dog, and mixed-gender human liver microsomes (XenoTech, Lenexa, KS). SCY-078 (1 μM) was incubated with pooled liver microsomes (0.5 mg protein/ml) for 0, 5, 10, 20, and 30 min at 37°C in the presence of NADPH. Aliquots were taken at each sampling time point and extracted with 5 volumes of ice-cold acetonitrile containing the internal standard (d9-SCY-078, 125 ng/ml). Supernatants from the incubation mixtures were analyzed for the parent compound by LC-MS/MS according to the conditions described below. The metabolic competency of microsomal preparations was established using the control compounds 7-ethoxycoumarin, propranolol, and verapamil. The in vitro intrinsic clearance (CLint), the CLint scaled to the in vivo intrinsic clearance (CL′int), and the half-life were determined for SCY-078 incubated with microsomes from each species.

in vivo = test: in vivo; parameters: species or system mice, rats, and dogs
Experimental: The pharmacokinetics and bioavailability of SCY-078 were evaluated in uninfected mouse, rat, and dog after p.o. and i.v. administration. The in vivo phases of the PK studies were performed at either […] (Waltham, MA) or MPI Research (Mattawan, MI) after an Institutional Animal Care and Use Committee (IACUC) review. […] and MPI Research are Association for Assessment and Accreditation of Laboratory Animal Care International (AAALAC)-approved facilities. […] The peak concentration (Cmax), the time to maximum concentration (Tmax), the half-life, and the AUC were determined from composite mean plasma concentration-time data for rodents and individual plasma concentration-time data for dogs. All doses and plasma concentrations of SCY-078 are presented as free base. […] Male and female Wistar Han rats (n = 3/sex/group/time point) weighing 0.329 to 0.398 kg (males) or 0.187 to 0.244 kg (females) received a single 5-mg/kg dose of SCY-078 as an i.v. injection in the lateral tail administered over 5 min or an oral dose of 20 mg/kg as described above. Blood specimens were collected from four animals/time point/group using a sparse sampling strategy via the sublingual vein at time intervals to 72 h postdosing and processed as described above. Treatment naive male and female beagle dogs (n = 3/sex/group/time point) weighing 8 to 12 kg (males) or 6 to 10 kg (females) were given a single 5-mg/kg dose of SCY-078 as an i.v. injection over 5 min or an oral dose of 20 mg/kg as described above. Blood specimens were collected from the jugular vein at various time intervals to 72 h postdosing and processed as described above.

[3] = Solubility in simulated gastric and intestinal fluids; assay type: physicochemical; conditions: thermodynamic from solid, citrate salt form
Experimental: The solubility of SCY-078 was measured in simulated gastric fluid (SGF), fasted-state simulated intestinal fluid (FaSSIF), and fed-state intestinal fluid (FeSSIF) by Crystal Pharmatech (North Brunswick, NJ). In general, approximately 15 mg of solid was weighed into a 4-ml vial, 3.0 ml of medium was added, and the suspensions were stirred on a rolling incubator (25 rpm) at an ambient room temperature for 24 h. After incubation, 0.5 ml of suspension was centrifuged and filtered (0.45-μm pore size), and the concentration of SCY-078 was determined in the supernatant by high-pressure liquid chromatography (HPLC) with UV detection. The quantity of SCY-078 and the volume of medium was adjusted as required to determine the solubility in each medium.

C. albicans CLY18600 = test: Single delayed-dose treatment model of disseminated candidiasis; assay type: in vivo, mice; conditions: single dose 16 h after infection, tissue burden 96 h after treatment, regression analysis
[4] = Plasma protein binding by equilibrium dialysis, across species; assay type: in vitro ADME, and human; conditions: DBA (mouse), Sprague-Dawley (rat), beagle (dog), human, pH 7.4, range across species, 0.1 to 10 μM
Experimental: In vitro reversible protein binding and blood/plasma partition ratio were determined for SCY-078 in mouse, rat, dog, and human plasma and whole blood (Table 3). […] The unbound fraction of SCY-078 in plasma determined by means of equilibrium dialysis was 0.2 to 0.5% (99.8 to 99.5% bound) and appeared to be independent of concentration over the range studied (0.1 to 10 μM). Within the limitations of the assay method, binding perhaps appeared modestly higher in rodent plasma than in dog or human plasma; however, the study was not powered to identify differences between species.
as §1
Protein binding was determined against isotonic phosphate-buffered saline (pH 7.4) at 37°C for 24 h. […] After incubation, aliquots (100 μl) of plasma and phosphate buffer were counted for radioactivity (Beckman LS6500 liquid scintillation counter), and unbound fractions of SCY-078 were estimated based on the following calculation: unbound fraction = radioactivity (dpm/0.1 ml) in buffer/total radioactivity (dpm/0.1 ml) in plasma.

[5] = both sexes, human, pooled liver microsomes, human (mixed) liver microsomes
[6] = pooled liver microsomes, male rat liver microsomes
[7] = female (mouse), both (rat, dog), CD-1 (mouse), Wistar Han (rat), beagle (dog), dog, po

SMILES: CC(C)[C@@H](C)[C@@]1(C)CC[C@]2(C)[C@H]3CC[C@@H]4[C@@]5(COC[C@@]4(C)[C@@H](OC[C@](C)(N)C(C)(C)C)[C@H](n4ncnc4-c4ccncc4)C5)C3=CC[C@@]2(C)[C@@H]1C(=O)O [SCY-078, (1S,4aR,6aS,7R,8R,10aR,10bR,12aR,14R,15R)-15-[[(2R)-2-amino-2,3,3-trimethylbutyl]oxy]-8-[(1R)-1,2-dimethylpropyl]-14-[5-(4-pyridinyl)-1H-1,2,4-triazol-1-yl]-1,6,6a,7,8,9,10,10a,10b,11,12,12a-dodecahydro-1,6a,8,10a-tetramethyl-4H-1,4a-propano-2H-phenanthro[1,2-c]pyran-7-carboxylic acid]
- fraction unbound at 24 h ([1]; DBA, mouse plasma): 0.002
- fraction unbound at 24 h, 0.1 μM ([1]; DBA, mouse plasma): 0.002
- fraction unbound at 24 h, 1 μM ([1]; DBA, mouse plasma): 0.002
- fraction unbound at 24 h, 10 μM ([1]; DBA, mouse plasma): 0.002
- fraction unbound at 24 h, 0.1 μM ([1]; Sprague-Dawley, rat plasma): 0.002
- fraction unbound at 24 h, 1 μM ([1]; Sprague-Dawley, rat plasma): 0.003
- fraction unbound at 24 h, 10 μM ([1]; Sprague-Dawley, rat plasma): 0.002
- fraction unbound at 24 h, 0.1 μM ([1]; beagle, dog plasma): 0.004
- fraction unbound at 24 h, 1 μM ([1]; beagle, dog plasma): 0.005
- fraction unbound at 24 h, 10 μM ([1]; beagle, dog plasma): 0.003
- fraction unbound at 24 h, 0.1 μM ([1]; human plasma): 0.002
- fraction unbound at 24 h, 1 μM ([1]; human plasma): 0.003
- fraction unbound at 24 h, 10 μM ([1]; human plasma): 0.004
- half-life at 1 μM [2, 5]: ≥ 0.7 h
- microsomal CLint at 1 μM [2, 5]: 34 µL/min/mg
- remaining at 0.5 h, 1 µM ([2]; both sexes, pooled liver microsomes, human (mixed) liver microsomes): 61%
- CLint ([2]; human (mixed) liver microsomes): 33 µL/min/mg
- remaining at 0.5 h, 1 µM ([2]; male rat liver microsomes): 84%
- half-life at 1 μM [2, 6]: 2.08 h
- microsomal CLint at 1 μM [2, 6]: 11 µL/min/mg
- Cmax (in vivo; CD-1 (mouse), Wistar Han (rat), beagle (dog), dog, po): ~1000 ng/mL
- half-life (in vivo; both sexes, CD-1, Wistar Han, mouse, rat, po): 7.8 to 9.1 h
- half-life (in vivo; female (mouse), both (rat), CD-1 (mouse), Wistar Han (rat), iv): 5.5 to 8.7 h
- Vd (in vivo; female (mouse), both (rat, dog), CD-1 (mouse), Wistar Han (rat), beagle (dog), dog, iv): 4.7 to 5.3 L/kg
- Dose normalized AUC0–12 across species (in vivo; [7]): 0.5-0.8 μg/ml·h/mg/kg dose
- Tmax (in vivo; [7]): 4 to 6 h
- solubility at 24 h ([3]; fasted-state simulated intestinal fluid (FaSSIF), FaSSIF): > 4.2 mg/mL
- solubility at 24 h ([3]; fed-state simulated intestinal fluid (FeSSIF), FeSSIF): > 20 mg/mL
- solubility at 24 h ([3]; simulated gastric fluid (SGF), simulated gastric fluid, SGF): > 20 mg/mL
- Dose achieving stasis endpoint (C. albicans CLY18600): 8.97 mg/kg
- fraction unbound at 24 h [4]: 0.002 to 0.005

From publication PMC5365645, “Preclinical Pharmacokinetics and Pharmacodynamic Target of SCY-078, a First-in-Class Orally Active Antifungal Glucan Synthesis Inhibitor, in Murine Models of Disseminated Candidiasis” (Antimicrobial Agents and Chemotherapy, 2017)
